Test results taken from publication PMC5785531, “Pharmacokinetic parameters explain the therapeutic activity of antimicrobial agents in a silkworm infection model” (Scientific Reports, 2018).
Values after ≈ are worked out from the molar mass of the structure shown. Read-outs that look alike come from different tables or passages of the source.

Tests used:
[1] = tested on: S. aureus MSSA1; assay: Silkworm systemic infection model, therapeutic activity (ED50); format: in vivo, Staphylococcus aureus
Source text: We synthesized 50 compounds (Fig. 2, Supplementary Table 1) using the Steglich esterification scheme[31] in the presence of a […], 1-ethyl-3-(3-dimethylaminopropyl)-carbodiimide hydrochloride (Fig. 1b). Antimicrobial activities of the compounds were examined by determining the MIC against S. aureus MRSA4 in vitro; therapeutic activities were examined using a systemic infection model of silkworms infected with S. aureus MSSA1.
A total of 108,373 compounds from the chemical library of the Drug Discovery Initiative at the University of Tokyo were screened for antibacterial activity against S. aureus strain MRSA4 as previously reported. Those compounds that inhibited the growth of MRSA4 at 100 µM were further evaluated for their therapeutic effects in silkworms infected with S. aureus strain MSSA1 according to previously reported studies[17],[21].

[2] = tested on: Listeria monocytogenes 10403S; assay: MIC by broth microdilution assay; format: cell-based; settings: median of three experiments
Protocol: (§1) Antimicrobial activity was assessed by determining the MIC by broth dilution assay according to our previous reports[21],[35],[36] as per the Clinical and Laboratory Standards Institute[37]. Briefly, serial dilutions of compound 5, compound 7, and positive controls were prepared in cation-adjusted Mueller-Hinton Broth (MHB, Difco, Franklin Lakes, NJ, USA), 100 µl of which was dispensed into each well of a round-bottomed 96-well plate. The final concentrations in the well ranged from 128 µg/ml to 0.0625 µg/ml. Bacteria were grown at 37 °C overnight on either Luria Bertani (tryptone 10 g/l, yeast extract 5 g/l, NaCl 10 g/l) or Tryptic Soy Broth (TSB, Difco) agar plates or sheep blood agar plates (Eiken Chemical Co. Ltd., Tokyo, Japan). Bacterial inoculum was prepared by direct suspension of the colonies in 0.9% saline, and adjusted to obtain a turbidity equivalent to a 0.5 McFarland standard using a spectrophotometer UV-1280 (Shimadzu Corp., Kyoto, Japan). The suspension was then diluted 1:20 in cation-adjusted MHB (Difco), and 10 µl of it was inoculated into each well of previously prepared 96-well plates containing compounds to obtain approximately 5 × 10^4 colony forming units/well and incubated at 37 °C for 20 h. […] Vancomycin (Wako Pure Chemicals) or norfloxacin (Sigma Aldrich, St Louis, MO, USA) were used as positive controls. Each plate contained a growth control well and a vehicle control well. The MIC was determined as the minimum concentration that inhibited the growth of the bacteria.

[3] = tested on: MSSA1 (clinical isolate); assay: MIC by broth microdilution assay; format: cell-based; settings: Staphylococcus aureus, MSSA, median of three experiments
Protocol: as §1

[4] = tested on: Smith ATCC13709; assay: MIC by broth microdilution assay; format: cell-based; settings: Staphylococcus aureus, ATCC 13709 / MSSA, median of three experiments
Protocol: as §1

[5] = tested on: Enterococcus faecalis EF1; assay: MIC by broth microdilution assay; format: cell-based; settings: median of three experiments
Protocol: as §1

[6] = tested on: Bacillus subtilis JCM2499; assay: MIC by broth microdilution assay; format: cell-based; settings: median of three experiments
Protocol: as §1

[7] = tested on: Newman; assay: MIC by broth microdilution assay; format: cell-based; settings: Staphylococcus aureus, MSSA, median of three experiments
Protocol: as §1

[8] = tested on: Bacillus cereus JCM20037; assay: MIC by broth microdilution assay; format: cell-based; settings: median of three experiments
Protocol: as §1

[9] = tested on: Escherichia coli W3110; assay: MIC by broth microdilution assay; format: cell-based; settings: median of three experiments
Protocol: as §1

[10] = tested on: Pseudomonas aeruginosa PAO1; assay: MIC by broth microdilution assay; format: cell-based; settings: median of three experiments
Protocol: as §1

[11] = tested on: USA300 FPR3757 (clinical isolate); assay: MIC by broth microdilution assay; format: cell-based; settings: Staphylococcus aureus, MRSA, median of three experiments
Protocol: as §1

[12] = tested on: Staphylococcus pseudintermedius JCM17571; assay: MIC by broth microdilution assay; format: cell-based; settings: median of three experiments
Protocol: as §1

[13] = tested on: Vancomycin- resistant E. faecalis EF5; assay: MIC by broth microdilution assay; format: cell-based; settings: Enterococcus faecalis, median of three experiments
Protocol: as §1

[14] = tested on: Streptococcus sanguinis JCM5708; assay: MIC by broth microdilution assay; format: cell-based; settings: MHB with 2.5% lysed horse blood, 24 h, median of three experiments
Protocol: as §1

[15] = tested on: Staphylococcus simulans; assay: MIC by broth microdilution assay; format: cell-based; settings: median of three experiments
Protocol: as §1

[16] = tested on: Staphylococcus haemolyticus JCM2416; assay: MIC by broth microdilution assay; format: cell-based; settings: median of three experiments
Protocol: as §1

[17] = tested on: NCTC8325; assay: MIC by broth microdilution assay; format: cell-based; settings: Staphylococcus aureus, MSSA / NCTC 8325, median of three experiments
Protocol: as §1

[18] = Staphylococcus aureus, silkworms infected with S. aureus MSSA1 (Fig. 2), read-out: ED50

## O=C(OCc1cc(Cl)cc(Cl)c1)c1ccc([N+](=O)[O-])s1 [compound 5]
[1]; S. aureus-infected silkworms
  ED50: 22 µg/g
[1]; [18]
  ED50: 22 mg/kg
[2]
  MIC: > 128 µg/mL
[3]
  MIC: 0.5 µg/mL (≈ 1.51 µM)
[4]
  MIC: 0.5 µg/mL (≈ 1.51 µM)
[5]
  MIC: > 128 µg/mL
[6]
  MIC: 1 µg/mL (≈ 3.01 µM)
[7]
  MIC: 0.5 µg/mL (≈ 1.51 µM)
[8]
  MIC: 1 µg/mL (≈ 3.01 µM)
[9]
  MIC: > 128 µg/mL
[10]
  MIC: > 128 µg/mL
[11]
  MIC: 1 µg/mL (≈ 3.01 µM)
[12]
  MIC: 0.125 µg/mL (≈ 0.376 µM)
[13]
  MIC: > 128 µg/mL
[14]
  MIC: > 128 µg/mL
[15]
  MIC: 0.25 µg/mL (≈ 0.753 µM)
[16]
  MIC: 0.25 µg/mL (≈ 0.753 µM)
[17]
  MIC: 0.5 µg/mL (≈ 1.51 µM)

## O=C(OCc1ccccc1)c1ccc([N+](=O)[O-])s1 [compound 7]
[1]; S. aureus-infected silkworms
  ED50: > 170 µg/g
[1]; [18]
  ED50: > 170 mg/kg
[2]
  MIC: > 128 µg/mL
[3]
  MIC: 1 µg/mL (≈ 3.8 µM)
[4]
  MIC: 0.5 µg/mL (≈ 1.9 µM)
[5]
  MIC: > 128 µg/mL
[6]
  MIC: 1 µg/mL (≈ 3.8 µM)
[7]
  MIC: 1 µg/mL (≈ 3.8 µM)
[8]
  MIC: 1 µg/mL (≈ 3.8 µM)
[9]
  MIC: > 128 µg/mL
[10]
  MIC: > 128 µg/mL
[11]
  MIC: 1 µg/mL (≈ 3.8 µM)
[12]
  MIC: 0.5 µg/mL (≈ 1.9 µM)
[13]
  MIC: > 128 µg/mL
[14]
  MIC: > 128 µg/mL
[15]
  MIC: 0.5 µg/mL (≈ 1.9 µM)
[16]
  MIC: 0.25 µg/mL (≈ 0.95 µM)
[17]
  MIC: 1 µg/mL (≈ 3.8 µM)
